Test results published in patent US4206088A, “Solid conducting agent” (priority 1978, dated 1980).
Counter-ions that a name gives are not always drawn.

Assay: volume resistivity
Assay type: physicochemical
Details: 23° C., 50% relative humidity
Experimental: In the present invention, it is very important that the above-mentioned protonically conductive solid should be adsorbed and supported on a finely divided inorganic solid acid.
Incidentally, in this and subsequent Examples, all the values of the volume resistivity were those as measured at a temperature of 23° C. and a relative humidity of 50%, unless otherwise indicated.

With NCCN [Ethylenediamine sulfate] the volume resistivity was 2.74×10^8 .OMEGA.-cm.
For N=C(N)N [Guanidine sulfate], the volume resistivity was 6.69×10^7 .OMEGA.-cm.
With C1N2CN3CN1CN(C2)C3 [Hexamethylene-tetraamine succinate] the volume resistivity was 2.05×10^11 .OMEGA.-cm.
In the case of C1CNCCN1.O=S(=O)(O)O [Piperazine sulfate], the volume resistivity is reported as 9.35×10^7 .OMEGA.-cm.
In the case of C1CCNCC1.O=S(=O)(O)O [piperidine sulfate], the volume resistivity is reported as 3.54×10^7 .OMEGA.-cm.

Assay: not given
Details: as determined at 20° C.; cited from earlier work

First: c1ccc(-c2ccccn2)nc1 [2,2'-Bis-pyridine]
Second: N=C(N)Nc1ccccc1 [Phenylguanidine]
The “First Stage Base Dissociation Constant (pKb)” value of the first is higher: 9.88 for the first, 3.23 for the second.

Going from Nc1ccncc1 [4-Aminopyridine] to CCNN [Ethylhydrazine], the “First Stage Base Dissociation Constant (pKb)” value rises from 4.83 to 6.29.

C=CCN [Allylamine] and CCN [Ethylamine] are within 0.2 log units of each other in “First Stage Base Dissociation Constant (pKb)” value: 3.51 for the first, 3.37 for the second.

First: CCCCCN [Amylamine]
Second: CCNCC [Diethylamine]
The “First Stage Base Dissociation Constant (pKb)” value of the first is higher: 3.37 for the first, 3.02 for the second.

Compared with NC1CCCCC1 [Cyclohexylamine], C1CCNCC1 [Piperidine] is lower in “First Stage Base Dissociation Constant (pKb)” value: 3.36 for the first, 2.78 for the second.

First: CNC [Dimethylamine]
Second: CNN [Methylhydrazine]
The “First Stage Base Dissociation Constant (pKb)” value of the first is lower: 3.13 for the first, 6.13 for the second.

First: NN [Hydrazine]
Second: NO [Hydroxylamine]
The “First Stage Base Dissociation Constant (pKb)” value of the first is lower: 6.07 for the first, 8.03 for the second.

Compared with CN [Methylamine], CN(C)C [Trimethylamine] is higher in “First Stage Base Dissociation Constant (pKb)” value: 3.38 for the first, 4.24 for the second.

C1CCNC1 [Pyrrolidine] and C1CNC1 [Trimethylene-imine] are within 0.2 log units of each other in “First Stage Base Dissociation Constant (pKb)” value: 2.73 for the first, 2.71 for the second.
